Experimental data from article PMC10465493, “Osteogenic induction of asiatic acid derivatives in human periodontal ligament stem cells” (Scientific Reports, 2023).
≈ marks a conversion by molar mass, not a printed value. Read-outs that look alike come from different tables or passages of the source. Each block holds one compound with its values, some of them ahead of it.

Legend:
[1] = Aqueous solubility by gravimetric method; type: physicochemical; conditions: thermodynamic from solid, ultrapure water, shaken 24 h, n = 6
Description: Aqueous solubility of AA and its derivatives were screened using a gravimetric method. Briefly, AA and the derivatives were dissolved in an excess amount in ultrapure water, and the samples were shaken at room temperature and 37 °C for 24 h. After that, the samples were centrifuged to separate the undissolved compounds. The specific volume of supernatants was then collected and lyophilised. The residual solid after lyophilisation was weighed using a 7-digit balance (XPR2u, Mettler Toledo, OH, USA), and the maximum solubility in water at the different temperature was calculated based on the volume of the collected solution of the compounds. […]

[2] = Cell viability, PrestoBlue resazurin assay; type: cell-based, human; conditions: human, hPDLSCs, 300 nM; for viability at 24 h, 0.3 µM: day 1, general medium
Description: (§1) Stock solutions of AA, 501, 502, 503, and 506 were prepared in DMSO at the concentration of 100 µM, before diluting in culture medium to the desired concentration. Cell viability after exposure to the drugs was investigated using a PrestoBlue™ resazurin assay according to the manufacturer’s protocol. Cells with a density of 60,000 cells/well were plated in 24 well-plates and cultured in a normal growth medium for 24 h. Then the cells were treated with 300 nM AA and solutions of, 501, 502, 503, and 506. After 24-h and 5-day incubation, the cultures were treated with resazurin working solution, and the fluorescence intensity at an emission wavelength of 590 nm was measured with excitation of 560-nm wavelength using a microplate reader (Synergy H1, Biotek multi-mode reader, Winooski, VT, USA). Untreated cells were used as the control, and the experiment was performed on different cell lines of at least five donors.

[3] = tested on: hPDLSCs; experiment: mRNA expression of osteogenic marker genes by quantitative RT-PCR; type: cell-based, human; conditions: for mRNA expression of all markers (BMP2, RUNX2, COL1A1, WNT3A): 100 nM (10 nM for 503)
Description: Cells were seeded in 24 well-plates at a density of 60,000 cells/well and treated with AA or the derivatives at different concentrations. The media was changed every other day to ensure the continuous activities of AA derivatives. For Erk inhibition experiments, cells were pretreated with 2.5 nM Erk inhibitor (cat. No. 328006, Calbiochem, San Diego, CA, USA) for 2 h prior to the treatment of AA derivatives. At each time point, the total RNA was extracted using TRIzol® reagent following the standard protocol, and the RNA content and purity were measured using a microvolume spectrophotometer (NanoDrop™ One, Thermo Fisher Scientific, USA). Then, 1 μg of RNA sample was reverse-transcribed into complementary DNA (cDNA) using Improm II reverse transcription system (Promega, USA). The expression levels of the target genes were detected by real-time polymerase chain reaction using the SYBR green detection system (FastStart Essential DNA Green Master, Roche Diagnostics, Switzerland) on the MiniOpticon™ RT-PCR system (Bio-Rad, USA). The quantitative RT-PCR was carried out using a LightCycler® 96 (Roche Diagnostics, Switzerland). The transcript expression of GAPDH was used as the internal control. The relative gene expression analysis was performed using the CFX Manager software (Bio-Rad, USA). The expression value was normalised using an expression value of cellular housekeeping gene, GAPDH, and the control was considered for each respective day.

[4] = tested on: hPDLSCs; experiment: Cell viability, PrestoBlue resazurin assay; type: cell-based, human; conditions: 300 nM, up to 5 days
Description: as §1

[5] = tested on: osteoclastogenesis; design: method as in PMID 32292339; conditions: cited from earlier work
[6] = octanol/water, cited from earlier work
[7] = tested on: hPDLSCs; experiment: BMP2 protein expression by ELISA; type: cell-based, human; conditions: 100 to 300 nM, D1 and D3, general medium
Description: The expression levels of targeted proteins were analysed by a sandwich ELISA assay. Firstly, the cells were lysed, and the amount of protein was analysed using a Bio-Rad BCA protein assay kit (Bio‐Rad Laboratories, USA). Following the standard protocol, the target proteins were analysed using an ELISA kit (R&D Systems, USA).

[8] = tested on: hPDLSCs; experiment: Alkaline phosphatase (ALP) activity assay; type: cell-based, human; conditions: 100, 200, 300 nM, D3, normalised to total cellular protein
Description: At the designated time points, the ALP activity was measured. Cells treated with different concentrations of AA derivatives were collected, washed with PBS, and lysed with alkaline lysis buffer. The cell lysate was incubated with a mixture containing 2 mg/mL p-nitrophenyl phosphate, 0.1 M 2-amino-2-methyl-1-propanol and 2 mM MgCl2. After incubation at 37 °C for 30 min, the reaction was terminated by addition of 50 mM NaOH. The absorbance at 410 nm was measured, and the quantitative data was normalised by the amount of total cellular protein.

[9] = tested on: hPDLSCs; experiment: Von Kossa and Alizarin red S staining for mineralisation; type: cell-based, human; conditions: 300 nM, 14 days, general medium, compared to osteogenic medium (positive control)
Description: In vitro mineralisation was visualised following calcium staining using Von Kossa’s method and Alizarin red S staining according to an established protocol. Briefly, on day 14, the cells were washed and fixed with cold methanol for 10 min before rinsing with deionised water. Von Kossa staining was performed by treating the fixed cells with 5%w/v silver nitrate solution for 30 min. For Alizarin Red S staining, the Alizarin Red S solution (0.5% w/v, pH 4.2) was incubated with the fixed cells for 5 min. The mineralised nodule formation was observed under a phase-contrast microscope (Nikon ECLIPSE Ts2, Nikon, USA). Cells cultured in a normal growth medium were used as the negative control. The cells cultured in an osteogenic medium (DMEM supplemented with […] ascorbic acid, 100 nM dexamethasone, and 10 mM β-glycerophosphate) were regarded as the positive control.

[10] = 37 °C, read-out: Experimental solubility in water at 37 °C (average ± SD)
[11] = room temperature, read-out: Experimental solubility in water at room temperature (average ± SD)
[12] = 300 nM, days 1 and 3, general medium

Structure (SMILES): CCCCOC(=O)C12CCC(C)C(C)C1C1=CCC3C4(C)CC(OC(C)=O)C(OC(C)=O)C(C)(COC(C)=O)C4CCC3(C)C1(C)CC2 (stereo not drawn) [compound 502]
solubility at 24 h [1, 10]: 14.5 ± 4.7 µg/mL (≈ 21.6 µM)
solubility at 24 h [1, 11]: 10 ± 1.5 µg/mL (≈ 14.9 µM)

Structure (SMILES): CC(=O)OCC1(C)C(OC(C)=O)C(OC(C)=O)CC2(C)C1CCC1(C)C2CC=C2C3C(C)C(C)CCC3(C(=O)O)CCC21C (stereo not drawn) [compound 501]
solubility at 24 h [1, 10]: 654 ± 95.5 µg/mL (≈ 1060 µM)
solubility at 24 h [1, 11]: 272 ± 31.5 µg/mL (≈ 442 µM)
viability at 5 days, 0.3 µM ([2]; day 5, general medium): < 75%
mRNA expression of all markers (BMP2, RUNX2, COL1A1, WNT3A) ([3]; 24 h, normal growth medium): no observable change

Structure (SMILES): C[C@H]1[C@H](C)CC[C@]2(C(=O)O)CC[C@]3(C)C(=CC[C@@H]4[C@@]5(C)C[C@@H](O)[C@H](O)[C@@](C)(CO)[C@@H]5CC[C@]43C)[C@H]12 [AA, Asiatic acid]
solubility at 24 h [1, 10]: 723 ± 184 µg/mL (≈ 1480 µM)
solubility at 24 h [1, 11]: 541 ± 76.8 µg/mL (≈ 1110 µM)
viability at 24 h, 0.3 µM [2]: > 90%
Toxicity to hPDLSCs [4]: no significant toxicity
mRNA expression of all markers (BMP2, RUNX2, COL1A1, WNT3A) ([3]; 24 h, normal growth medium): no observable change
Concentration required to inhibit osteoclastogenesis or bone loss [5]: up to 20 µM
Theoretical log P ([6]; ref 33): 5.8
Theoretical log P ([6]; ref 38, 39): 5.7

More lines, main results first:

solubility at 24 h [1, 10]: 331 ± 82.6 µg/mL (≈ 473 µM)
solubility at 24 h [1, 11]: 164 ± 28.2 µg/mL (≈ 235 µM)
Structure (SMILES): CC(=O)OC[C@@]1(C)C2CC[C@]3(C)C(CC=C4[C@@H]5[C@@H](C)[C@H](C)CC[C@]5(C(=O)NCCCN(C)C)CC[C@]43C)[C@@]2(C)C[C@@H](OC(C)=O)[C@@H]1OC(C)=O (stereo partly drawn) [compound 503]
viability at 24 h, 0.3 µM [2]: < 40%
mRNA expression of all markers (BMP2, RUNX2, COL1A1, WNT3A) ([3]; 24 h, normal growth medium): no observable change

solubility at 24 h [1, 10]: 852 ± 85.6 µg/mL (≈ 1490 µM)
solubility at 24 h [1, 11]: 810 ± 36 µg/mL (≈ 1410 µM)
ALP activity [8]: dose-dependent increase
Structure (SMILES): C[C@H]1[C@H](C)CC[C@]2(C(=O)NCCCN(C)C)CC[C@]3(C)C(=CCC4[C@@]5(C)C[C@@H](O)[C@H](O)[C@@](C)(CO)C5CC[C@]43C)[C@H]12 (stereo partly drawn) [compound 506]
Toxicity to hPDLSCs [4]: no significant toxicity
BMP2 mRNA expression ([3]; 100 nM, 24 h, normal growth medium): high expression
WNT3A expression with Erk inhibitor ([3]; 300 nM 506, pretreated with Erk inhibitor, general medium): inhibited
BMP2 expression ([3]; 300 nM, day 1): High expression
BMP2 expression ([3]; 300 nM, day 3): declining to a control level
WNT3A transcript level ([3]; 300 nM, day 3): elevated transcript level
COL1A1 expression level [3, 12]: no observable change
RUNX2 expression level [3, 12]: no observable change
ALP expression level compared to control ([3]; 300 nM, general medium): enhanced
BMP2 expression level compared to control ([3]; 300 nM, general medium): enhanced
IBSP expression level compared to control ([3]; 300 nM, general medium): enhanced
OSX expression level compared to control ([3]; 300 nM, general medium): enhanced
BMP2 gene expression ([3]; 100 to 300 nM, first day after exposure, general medium): elevated transcript level at the lower concentrations (100 and 200 nM)
BMP2 protein expression [7]: dose-dependent increase
Tissue mineralisation (calcium deposition) [9]: comparable to those same cells cultured in an osteogenic medium
